From patent publication US20080096894A1, “Anti-Bacterial Compounds” (ASTON UNIVERSITY, priority 2005, published 2008)
Values after ≈ are worked out from the molar mass of the structure shown. Where two headings read alike, the source gives them in different places.

Experiments:
Experiment in all cases: MIC, agar dilution, multipoint inoculator
MRSA = format: cell-based, methicillin-resistant Staphylococcus aureus
Method: (§1) This activity was measured using a multipoint inoculator method as follows. The MIC for each compound was measured using an agar dilution method (Onda, H., et al., Int. J. Antimicrob. Agents. 18, 263 (2001)) (Mueller Hinton agar) by means of a multipoint inoculator delivering 10^4 colony forming units per spot.
‘Staph’ refers to the reference strain of S. aureus (NCTC 6571). A tick in the MRSA column refers to a positive zone against MRSA strain 96-7474, and the MIC range (in μg/ml) which follows is that found against a panel of ten MRSA strains. Where MIC values are given for MRSA, these are stated as a range of values, as testing was carried out on a panel of clinical isolates.

S. aureus = format: cell-based, Staphylococcus aureus; conditions: upper value of MIC reading
Method: as §1

S. epidemisis = format: cell-based, Staphylococcus epidermidis; conditions: upper value of MIC reading
Method: as §1

E. faecalis = format: cell-based; conditions: upper value of MIC reading
Method: as §1

S. haemolyticus = format: cell-based; conditions: S. haemolyticus Isolate 1, upper value of MIC reading
Method: as §1

E. faecium = format: cell-based, Enterococcus faecium; conditions: upper value of MIC reading
Method: as §1

[1] = panel of ten MRSA strains (clinical isolates)
[2] = MRSA Isolate 1, upper value of MIC reading, in µg/mL
[3] = MRSA Isolate 2, upper value of MIC reading, in µg/mL
[4] = MRSA Isolate 3, upper value of MIC reading, in µg/mL
[5] = MRSA Isolate 4, upper value of MIC reading, in µg/mL
[6] = MRSA Isolate 5, upper value of MIC reading, in µg/mL
[7] = MRSA Isolate 6, upper value of MIC reading, in µg/mL
[8] = MRSA Isolate 7, upper value of MIC reading, in µg/mL
[9] = MRSA Isolate 8, upper value of MIC reading, in µg/mL
[10] = MRSA Isolate 9, upper value of MIC reading, in µg/mL
[11] = MRSA Isolate 10, upper value of MIC reading, in µg/mL

## Cc1ccccc1C=NN=C(N)c1ccccn1 [Compound 2PYah]
MRSA; [1]
  MRSA MIC range: 128 to 256 µg/mL

## CCc1ccccc1C=NN=C(N)c1ccccn1 [Compound 2PYai]
MRSA; [1]
  MRSA MIC range: 128 to 256 µg/mL

## Cc1cccc(C=NN=C(N)c2ccccn2)c1 [Compound 2PYaj]
MRSA; [1]
  MRSA MIC range: 128 to 256 µg/mL

## NC(=NN=Cc1cc([N+](=O)[O-])ccc1O)c1ccccn1 [Compound 2PYcj]
S. aureus; S. aureus Cowan 1
  MIC: 32 µg/mL (≈ 112 µM)
S. aureus; S. aureus NCTC 6571
  MIC: 16 µg/mL (≈ 56.1 µM)
S. aureus; S. aureus NCTC 10788
  MIC: 16 µg/mL (≈ 56.1 µM)
MRSA; [2]
  MIC: 16
MRSA; [3]
  MIC: 16
MRSA; [4]
  MIC: 4
MRSA; [5]
  MIC: 8
MRSA; [6]
  MIC: 16
MRSA; [7]
  MIC: 16
MRSA; [8]
  MIC: 8
MRSA; [9]
  MIC: 4-8
MRSA; [10]
  MIC: 8
MRSA; [11]
  MIC: 8
MRSA; [1]
  MRSA MIC range: 4 to 32 µg/mL
S. epidemisis; S. epidemisis Isolate 1
  MIC: 256 µg/mL (≈ 897 µM)
S. epidemisis; S. epidemisis NCTC 11047
  MIC: 256 µg/mL (≈ 897 µM)
E. faecalis; E. faecalis Isolate 3
  MIC: 256 µg/mL (≈ 897 µM)
E. faecalis; E. faecalis Isolate 5
  MIC: 256 µg/mL (≈ 897 µM)
S. haemolyticus
  MIC: 256 µg/mL (≈ 897 µM)

## NC(=NN=Cc1cc(Br)cc([N+](=O)[O-])c1O)c1ccccn1 [Compound 2PYcl]
S. aureus; S. aureus Cowan 1
  MIC: 64 µg/mL (≈ 176 µM)
S. aureus; S. aureus NCTC 6571
  MIC: 32 µg/mL (≈ 87.9 µM)
S. aureus; S. aureus NCTC 10788
  MIC: 32 µg/mL (≈ 87.9 µM)
MRSA; [2]
  MIC: 64
MRSA; [3]
  MIC: 64
MRSA; [4]
  MIC: 64
MRSA; [5]
  MIC: 32
MRSA; [6]
  MIC: 32
MRSA; [7]
  MIC: 64
MRSA; [8]
  MIC: 64
MRSA; [9]
  MIC: 64
MRSA; [10]
  MIC: 64
MRSA; [11]
  MIC: 64
E. faecium; E. faecium ACTCC 10541
  MIC: 128 µg/mL (≈ 351 µM)
E. faecium; E. faecium NCTC 7171
  MIC: 256 µg/mL (≈ 703 µM)
E. faecalis; E. faecalis EBH1
  MIC: 256 µg/mL (≈ 703 µM)
E. faecalis; E. faecalis NCTC 5957
  MIC: 256 µg/mL (≈ 703 µM)

## NC(=NN=Cc1c(O)ccc2ccccc12)c1ccccn1 [Compound 2PYdb]
S. aureus; S. aureus NCTC 6571
  MIC: > 256 µg/mL
MRSA; [4]
  MIC: >256
MRSA; [1]
  MRSA MIC range: > 256 µg/mL

## NC(=NN=Cc1cccc(Cl)c1)c1ccccn1 [Compound 2PYdg]
MRSA; [1]
  MRSA MIC range: 64 to 128 µg/mL

## CN(C)c1ccc(C=NN=C(N)c2ccccn2)cc1 [Compound 2PYdq]
MRSA; [1]
  MRSA MIC range: 128 to 256 µg/mL

## NC(=NN=Cc1ccc(O)c(O)c1O)c1ccncc1 [Compound 4PYcb]
MRSA; [1]
  MRSA MIC range: 30 to 40 µg/mL

## NC(=NN=Cc1cc(O)c(O)cc1O)c1ccncc1 [Compound 4PYcc]
MRSA; [1]
  MRSA MIC range: 20 to 30 µg/mL

## NC(=NN=Cc1cc([N+](=O)[O-])ccc1O)c1ccncc1 [Compound 4PYcj]
MRSA; [1]
  MRSA MIC range: 20 to 30 µg/mL

## NC(=NN=Cc1cc(I)cc(I)c1O)c1ccncc1 [Compound 4PYco]
MRSA; [1]
  MRSA MIC range: 10 to 20 µg/mL

## CC(C)(C)c1cc(C=NN=C(N)c2ccncc2)cc(C(C)(C)C)c1O [Compound 4PYcr]
S. aureus; S. aureus NCTC 6571
  MIC: > 256 µg/mL
MRSA; [4]
  MIC: >256
MRSA; [1]
  MRSA MIC range: > 256 µg/mL

## N/C(=N\N=C\c1ccccc1Sc1ccc(Cl)cc1)c1ccncc1 [Compound 4PYeh, N^1-[2-(4-chlorothiophenyl)benzylidene]-pyridine-4-carboxamidrazone]
S. aureus; Staphylococcus aureus, 18 h, S. aureus Cowan 1, read-out: MIC
  MIC: 8 µg/mL (≈ 21.8 µM)
S. aureus; Staphylococcus aureus, NCTC6571, 18 h, S. aureus NCTC 6571, read-out: MIC
  MIC: 128 µg/mL (≈ 349 µM)
S. aureus; Staphylococcus aureus, NCTC10788, 18 h, S. aureus NCTC 10788, read-out: MIC
  MIC: 16 µg/mL (≈ 43.6 µM)
MRSA; Staphylococcus aureus, 18 h, MRSA Isolate 1, upper value of MIC reading, read-out: MIC
  MIC: 16 µg/mL (≈ 43.6 µM)
MRSA; Staphylococcus aureus, 18 h, MRSA Isolate 2, upper value of MIC reading, read-out: MIC
  MIC: 16 µg/mL (≈ 43.6 µM)
MRSA; Staphylococcus aureus, 18 h, MRSA Isolate 3, upper value of MIC reading, read-out: MIC
  MIC: 16 µg/mL (≈ 43.6 µM)
MRSA; Staphylococcus aureus, 18 h, MRSA Isolate 4, upper value of MIC reading, read-out: MIC
  MIC: 16 µg/mL (≈ 43.6 µM)
MRSA; Staphylococcus aureus, 18 h, MRSA Isolate 5, upper value of MIC reading, read-out: MIC
  MIC: 16 µg/mL (≈ 43.6 µM)
MRSA; Staphylococcus aureus, 18 h, MRSA Isolate 6, upper value of MIC reading, read-out: MIC
  MIC: 16 µg/mL (≈ 43.6 µM)
MRSA; Staphylococcus aureus, 18 h, MRSA Isolate 7, upper value of MIC reading, read-out: MIC
  MIC: 64 µg/mL (≈ 174 µM)
MRSA; Staphylococcus aureus, 18 h, MRSA Isolate 8, upper value of MIC reading, read-out: MIC
  MIC: 32 µg/mL (≈ 87.2 µM)
MRSA; Staphylococcus aureus, 18 h, MRSA Isolate 9, upper value of MIC reading, read-out: MIC
  MIC: 16 µg/mL (≈ 43.6 µM)
MRSA; Staphylococcus aureus, 18 h, MRSA Isolate 10, upper value of MIC reading, read-out: MIC
  MIC: 16 µg/mL (≈ 43.6 µM)
MRSA; Staphylococcus aureus, MRSA, 18 h, panel of ten MRSA strains (clinical isolates), read-out: MRSA MIC range
  MIC: 8 to 64 µg/mL (≈ 21.8 to 174 µM)
S. epidemisis; Staphylococcus epidermidis, 18 h, S. epidemisis Isolate 1, read-out: MIC
  MIC: 256 µg/mL (≈ 698 µM)
S. epidemisis; Staphylococcus epidermidis, NCTC11047, 18 h, S. epidemisis NCTC 11047, read-out: MIC
  MIC: 256 µg/mL (≈ 698 µM)
S. haemolyticus; Staphylococcus haemolyticus, 18 h, read-out: MIC
  MIC: 256 µg/mL (≈ 698 µM)

## COc1ccc(C=NNc2ccccn2)c(O)c1 [HDcf]
MRSA; [1]
  MRSA MIC range: 20 to 30 µg/mL

## NC(=NN=Cc1ccc(O)c(O)c1O)c1cnccn1 [PZcb]
S. aureus; S. aureus Cowan 1
  MIC: 256 µg/mL (≈ 937 µM)
S. aureus; S. aureus NCTC 6571
  MIC: 256 µg/mL (≈ 937 µM)
S. aureus; S. aureus NCTC 10788
  MIC: 256 µg/mL (≈ 937 µM)
MRSA; [2]
  MIC: 256
MRSA; [3]
  MIC: 256
MRSA; [4]
  MIC: 256
MRSA; [5]
  MIC: 256
MRSA; [6]
  MIC: 256
MRSA; [7]
  MIC: 256
MRSA; [8]
  MIC: 256
MRSA; [9]
  MIC: 256
MRSA; [10]
  MIC: 256
MRSA; [11]
  MIC: 256
MRSA; [1]
  MRSA MIC range: 128 to 256 µg/mL
S. epidemisis; S. epidemisis NCTC 11047
  MIC: 256 µg/mL (≈ 937 µM)
E. faecalis; E. faecalis Isolate 2
  MIC: 256 µg/mL (≈ 937 µM)
E. faecalis; E. faecalis Isolate 3
  MIC: 256 µg/mL (≈ 937 µM)
S. haemolyticus
  MIC: 256 µg/mL (≈ 937 µM)

## NC(=NN=Cc1cc([N+](=O)[O-])ccc1O)c1cnccn1 [PZcj]
S. aureus; S. aureus Cowan 1
  MIC: 256 µg/mL (≈ 894 µM)
S. aureus; S. aureus NCTC 6571
  MIC: 16 µg/mL (≈ 55.9 µM)
S. aureus; S. aureus NCTC 10788
  MIC: 16 µg/mL (≈ 55.9 µM)
MRSA; [2]
  MIC: 8
MRSA; [3]
  MIC: 8
MRSA; [4]
  MIC: 4
MRSA; [5]
  MIC: 4
MRSA; [6]
  MIC: 16
MRSA; [7]
  MIC: 16
MRSA; [8]
  MIC: 16
MRSA; [9]
  MIC: 16
MRSA; [10]
  MIC: 16
MRSA; [11]
  MIC: 16
MRSA; [1]
  MRSA MIC range: 4 to 16 µg/mL
S. epidemisis; S. epidemisis Isolate 1
  MIC: 256 µg/mL (≈ 894 µM)
E. faecalis; E. faecalis Isolate 3
  MIC: 256 µg/mL (≈ 894 µM)

## CC(C)(C)[Si](C)(C)Oc1ccccc1/C=N/N=C(\N)c1cnccn1 [PZeg]
MRSA; [1]
  MRSA MIC range: > 256 µg/mL

## NC(=NN=Cc1cc(Br)cc([N+](=O)[O-])c1O)c1ccc2ccccc2n1 [QNcl]
S. aureus; S. aureus NCTC 6571
  MIC: > 256 µg/mL
MRSA; [3]
  MIC: 64
MRSA; [4]
  MIC: 64
MRSA; [5]
  MIC: 64
S. epidemisis; S. epidemisis NCTC 11047
  MIC: 256 µg/mL (≈ 618 µM)
E. faecalis; E. faecalis Isolate 2
  MIC: 256 µg/mL (≈ 618 µM)
E. faecalis; E. faecalis Isolate 3
  MIC: 256 µg/mL (≈ 618 µM)
S. haemolyticus
  MIC: 256 µg/mL (≈ 618 µM)

## O=Cc1cc(Br)cc([N+](=O)[O-])c1O [cl]
S. aureus; S. aureus Cowan 1
  MIC: 32 µg/mL (≈ 130 µM)
S. aureus; S. aureus NCTC 6571
  MIC: 16 µg/mL (≈ 65 µM)
S. aureus; S. aureus NCTC 10788
  MIC: 16 µg/mL (≈ 65 µM)
MRSA; [2]
  MIC: 16
MRSA; [3]
  MIC: 16
MRSA; [4]
  MIC: 32
MRSA; [5]
  MIC: 16
MRSA; [6]
  MIC: 16
MRSA; [7]
  MIC: 32
MRSA; [8]
  MIC: 32
MRSA; [9]
  MIC: 32
MRSA; [10]
  MIC: 32
